Data set [1] relates to HEK-293 cells stably expressing GFP-LC3B. The data set is described as follows: Autophagic flux (GFP-LC3B reporter cells). As to conditions: Homo sapiens, HEK293, 24 h.
The subject of data set [2] is αSyn dimerization in Neuro2A (N2A) cells. In words: αSyn-dimerization assay (split Gaussia luciferase PCA). The settings on record: for activity at 10 µM: Mus musculus, N2a.
Data set [3] has as its system ROS production in SH-SY5Y cells. The data set is described as follows: ROS detection assay under oxidative stress. The settings on record: Homo sapiens, 3 h.
The target of data set [4] is T1, PREP in mouse brain homogenate (Mus musculus, UniProt Q9QUR6).
T1 construct: from tissue; host or cells: mouse brain homogenate
T1 sequence (Q9QUR6 whole entry): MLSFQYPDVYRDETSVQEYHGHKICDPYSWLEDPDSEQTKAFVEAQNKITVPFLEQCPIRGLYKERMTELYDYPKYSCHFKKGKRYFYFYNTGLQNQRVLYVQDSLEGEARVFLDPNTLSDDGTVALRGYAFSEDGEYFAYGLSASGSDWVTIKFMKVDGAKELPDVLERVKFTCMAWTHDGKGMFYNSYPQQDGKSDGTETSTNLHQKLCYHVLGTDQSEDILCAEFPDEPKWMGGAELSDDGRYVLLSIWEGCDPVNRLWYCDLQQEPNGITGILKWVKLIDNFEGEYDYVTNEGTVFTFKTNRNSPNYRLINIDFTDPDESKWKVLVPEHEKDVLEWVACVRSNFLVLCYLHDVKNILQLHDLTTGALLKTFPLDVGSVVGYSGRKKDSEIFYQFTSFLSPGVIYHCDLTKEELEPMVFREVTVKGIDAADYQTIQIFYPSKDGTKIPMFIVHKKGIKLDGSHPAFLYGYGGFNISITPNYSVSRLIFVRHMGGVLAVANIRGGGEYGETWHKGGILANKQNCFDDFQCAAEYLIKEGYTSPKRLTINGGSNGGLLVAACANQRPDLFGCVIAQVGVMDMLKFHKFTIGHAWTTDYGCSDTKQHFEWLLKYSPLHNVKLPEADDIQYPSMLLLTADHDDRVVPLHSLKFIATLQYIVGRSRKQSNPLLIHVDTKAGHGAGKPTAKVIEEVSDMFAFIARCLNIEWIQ
The data set is described as follows: PREP inhibition measured with mouse brain homogenate. The data set is classed as biochemical.

The nature of data set [5]: Stability studies (NMR, MS, polarimetry, long-term monitoring). As to conditions: NMR samples in solution, 2-4 days at room temperature; UPLC-MS two or more weeks after isolation.
Data set [6] has as its system pPP2Ac and PP2Ac in HEK-293 cells. In words: PP2A marker assay (Western blot). As to conditions: HEK-293, 10 μM, 4 h. In kind it is cell-based, human. For orientation: A western blot detects proteins with antibodies after separation by electrophoresis.
For data set [7], the system named is oligomeric αSyn in AAV-αSyn-injected mice. In words: Oligomer-specific αSyn immunoreactivity (OD) in AAV-αSyn PD mouse model. As to conditions: 10 mg/kg/day minipump, 4 weeks.
Data set [8] has as its system LC3BII in HEK-293 cells. In words: Autophagy marker LC3BII assay (Western blot). The data set is classed as cell-based, human. The settings on record: HEK-293, 10 μM.
Data set [9] relates to AAV2-CBA-αSyn-injected mice. In words: Cylinder test in AAV-αSyn PD mouse model. As to conditions: 10 mg/kg/day minipump, after 2 weeks of treatment (6-week time point), vs vehicle-treated AAV-αSyn mice.
Data set [10] concerns pPP2Ac and PP2Ac in mouse brain. In words: PP2A markers in mouse brain (Western blot). In kind it is in vivo. The settings on record: 10 mg/kg i.p., 45 min after injection.
The target in data set [11] is T2, recombinant porcine PREP (Sus scrofa, UniProt P23687).
T2 construct: made in house
T2 sequence (P23687 whole entry): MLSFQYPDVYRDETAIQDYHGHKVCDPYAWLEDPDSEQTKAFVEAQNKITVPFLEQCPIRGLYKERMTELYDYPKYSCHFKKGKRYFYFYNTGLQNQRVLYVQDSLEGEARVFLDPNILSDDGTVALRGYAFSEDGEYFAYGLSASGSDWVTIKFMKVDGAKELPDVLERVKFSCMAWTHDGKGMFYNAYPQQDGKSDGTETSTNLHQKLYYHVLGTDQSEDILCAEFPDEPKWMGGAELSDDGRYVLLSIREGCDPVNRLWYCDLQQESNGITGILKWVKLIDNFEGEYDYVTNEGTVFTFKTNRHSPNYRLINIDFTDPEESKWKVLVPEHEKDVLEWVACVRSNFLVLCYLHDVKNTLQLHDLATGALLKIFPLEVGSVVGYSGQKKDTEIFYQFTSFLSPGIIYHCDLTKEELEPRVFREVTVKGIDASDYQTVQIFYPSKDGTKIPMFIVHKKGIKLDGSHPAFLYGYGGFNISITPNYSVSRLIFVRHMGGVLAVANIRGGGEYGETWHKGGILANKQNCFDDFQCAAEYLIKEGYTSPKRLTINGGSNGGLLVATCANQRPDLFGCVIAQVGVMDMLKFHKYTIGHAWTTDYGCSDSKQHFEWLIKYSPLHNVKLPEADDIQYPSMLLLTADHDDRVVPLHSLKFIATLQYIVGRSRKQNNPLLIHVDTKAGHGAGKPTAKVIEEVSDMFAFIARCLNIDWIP
The data set is described as follows: PREP activity assay (inhibition of proteolytic activity). In kind it is biochemical.

The mark [12] stands for this setting: read-out: Autophagy at 10 uM (%).
Where [13] appears, read: read-out: autophagy at 10 μM (%).
[14] abbreviates: read-out: aSyn dimerization at 10 uM (%).
[15] abbreviates: read-out: αSyn dimer. at 10 μM (%).
[16] abbreviates: read-out: luminescence signal compared to the DMSO control (αSyn dimerization).
Where [17] appears, read: Suc-Gly-Pro-AMC as substrate, 95% CI in brackets, read-out: IC50 (nM) (95% CI).
Setting [18] is: supplementary CSV, read-out: IC50.
The mark [19] stands for this setting: read-out: ROS production, % of the control.

As usually defined, the IC50 is the concentration needed to halve the response being measured.

Molecules are shown by their SMILES. Read-outs that look alike come from different tables or passages of the source. Where only a bound is given, the exact number is not on record here.

As for `Cc1nc(C(=O)CCc2ccccc2)oc1N1CCCC1` [compound 25, 1-(4-Methyl-5-(pyrrolidin-1-yl)oxazol-2-yl)-3-phenylpropan-1-one], the activity at 10 µM in data set [1] (setting [12]) stood at 95%; in data set [1] (setting [13]), 95 ± 10%; in [2] (setting [14]), 110%; in data set [2] (setting [15]), 110 ± 6%; in [3] (read-out: ROS at 10 uM (%)), 105%; in data set [3] (read-out: ROS at 10 μM (%)), 105 ± 8%. Besides, the “inhibitory activity (in words)” value in [4] (Table 2: mouse brain homogenate) is on record as “very weak inhibitor”. Besides, the IC50 in [4] (measured with mouse brain homogenate, read-out: IC50 (nM) (95% CI)) came out at 90000 nM.
Consider `Cc1nc(CCc2cccnc2)oc1N1CCCC1C#N` (stereo not drawn) [compound 70], for which, in data set [5], the “long-term stability (in words)” value is reported as “lowered the stability”.
With `N#C[C@@H]1CCCN1C(=O)[C@@H]1CCCN1C(=O)CCCc1ccccc1` [KYP-2047, reference compound], the “total PP2Ac levels (in words)” value in [6] is given as “elevated total PP2Ac levels”. The “OD of oligomeric αSyn in the SNpc (in words)” value in data set [7] (vs vehicle-treated group) is recorded as “did not significantly reduce”. For the same compound, the “OD of oligomer-specific αSyn in the STR (in words)” value in data set [7] (vs vehicle-treated mice) was “decreased the OD of oligomer-specific αSyn”. The “LC3BII levels (in words)” value in data set [8] (4 h) was “significant increase in LC3BII levels”; in data set [8] (24 h), “significantly elevated LC3BII levels”. In addition, the “use of the ipsilateral forepaw in the cylinder test (in words)” value in data set [9] is “significantly decreased their use of the ipsilateral forepaw”. Further, the “inactive pPP2Ac levels in mouse brain (in words)” value in [10] was “decreased inactive pPP2Ac levels, but this was not significant”. The “levels of PP2Ac in mouse brain (in words)” value in [10] is reported as “significantly increased the levels of PP2Ac”.
Regarding `Cc1nc(CCc2ccccc2)oc1N1CCC[C@H]1C#N` [compound 15, (S)-1-(4-Methyl-2-phenethyloxazol-5-yl)pyrrolidine-2-carbonitrile], the activity at 10 µM was 88% in data set [1] (setting [12]); at most 88% in data set [1] (read-out: GFP signal of the DMSO control (autophagic flux)); 88 ± 4% in [1] (setting [13]); 75% in data set [2] (setting [14]); at most 75% in data set [2] (setting [16]); 75 ± 4% in data set [2] (setting [15]). Further, the activity at 10 µM turned out to be 89% in data set [3] (read-out: ROS at 10 uM (%)) and 89 ± 1% in [3] (read-out: ROS at 10 μM (%)). Further, the IC50 in data set [11] (setting [17]) was found to be 692 nM.
For `c1ccc(CCCc2ncc(-c3ccccc3)o2)cc1` [compound 29, 5-Phenyl-2-(3-phenylpropyl)oxazole], the activity at 10 µM in [1] (setting [12]) was found to be 90%; in [1] (setting [13]) it was 90 ± 4%; in [2] (setting [14]), 90%; in data set [2] (setting [15]), 90 ± 6%; in data set [3] (read-out: ROS at 10 uM (%)), 93%; in data set [3] (read-out: ROS at 10 μM (%)) it was 93 ± 11%. Moreover, the “inhibitory activity (in words)” value in [11] is recorded as “strongly reduced inhibitory activities”. Also, the IC50 in data set [11] (setting [18]) was 91600 nM.
Consider `N#C[C@@H]1CCCN1c1oc(CCCc2ccccc2)nc1C(=O)C(F)(F)F` [compound 12, (S)-1-(2-(3-Phenylpropyl)-4-(2,2,2-trifluoroacetyl)oxazol-5-yl)pyrrolidine-2-carbonitrile], for which the activity at 10 µM in [1] (setting [12]) was 98%; in [1] (setting [13]), 98 ± 2%; in data set [2] (setting [14]) it was 104%; in data set [2] (setting [15]) it was 104 ± 5%; in data set [3] (read-out: ROS at 10 uM (%)), 81%; in data set [3] (read-out: ROS at 10 μM (%)), 81 ± 10%. Further, in data set [3] (setting [19]), the activity at 10 µM is below 88%. Moreover, in data set [11], the “inhibitory activity (in words)” value was “strongly reduced inhibitory activity”. For the same compound, in data set [11] (setting [18]), the IC50 amounted to 209000 nM.
With `c1ccc(CCCc2ncc(-c3cccs3)o2)cc1` [compound 30, 2-(3-Phenylpropyl)-5-(2-thienyl)oxazole], the activity at 10 µM in data set [1] (setting [12]) was 98%; in data set [1] (setting [13]), 98 ± 10%; in data set [2] (setting [14]), 86%; in data set [2] (setting [16]), 80 to 85%; in [2] (setting [15]), 86 ± 8%; in data set [3] (read-out: ROS at 10 uM (%)) it was 96%. Further, in [3] (read-out: ROS at 10 μM (%)), the activity at 10 µM was 96 ± 9%. For the same compound, in [11], the “inhibitory activity (in words)” value is listed as “strongly reduced inhibitory activities”. Also, the IC50 in data set [11] (setting [18]) was 37300 nM.
Turning to `Cc1nc(-c2ccccc2)oc1N1CCC[C@H]1C#N` [compound 13, (S)-1-(4-Methyl-2-phenyloxazol-5-yl)pyrrolidine-2-carbonitrile], the activity at 10 µM is 92% in data set [1] (setting [12]); 92 ± 1% in data set [1] (setting [13]); 80% in data set [2] (setting [14]); 80 to 85% in data set [2] (setting [16]); 80 ± 9% in [2] (setting [15]); 86% in data set [3] (read-out: ROS at 10 uM (%)). Also, the activity at 10 µM is 86 ± 13% in data set [3] (read-out: ROS at 10 μM (%)) and below 88% in data set [3] (setting [19]). The IC50 in data set [11] (setting [17]) was 7940 nM.
As for `Cc1nc(CCCc2ccccc2)oc1N(C)CC#N` [compound 6, 2-(Methyl(4-methyl-2-(3-phenylpropyl)oxazol-5-yl)amino)acetonitrile], the activity at 10 µM in [1] (setting [12]) was found to be 96%; in [1] (setting [13]), 96 ± 3%; in data set [2] (setting [14]), 109%; in data set [2] (setting [15]) it was 109 ± 6%; in data set [3] (read-out: ROS at 10 uM (%)), 94%; in data set [3] (read-out: ROS at 10 μM (%)), 94 ± 7%. In data set [11], the “inhibitory activity (in words)” value is on record as “very low inhibitory activities”. Besides, the IC50 in data set [11] (setting [18]) turned out to be 12400 nM.
With `N#C[C@@H]1CCCN1c1oc(CCCc2ccccc2)nc1-c1ccccc1` [compound 10, 4-Phenylbutanoyl-(4-phenyl-2-oxazol-5-yl)-2(S)-cyanopyrrolidine], the activity at 10 µM in data set [1] (setting [12]) was 104%; in [1] (setting [13]), 104 ± 6%; in data set [2] (setting [14]), 97%; in [2] (setting [15]), 97 ± 10%; in data set [3] (read-out: ROS at 10 uM (%)) it was 77%; in data set [3] (read-out: ROS at 10 μM (%)) it was 77 ± 8%. The activity at 10 µM in [3] (setting [19]) stood at 75%. The “inhibitory activity (in words)” value in data set [11] is on record as “further reduced inhibitory activities”. For the same compound, the IC50 in data set [11] (setting [18]) was determined as 17400 nM.
Consider `Cc1nc(CCc2cn(C(=O)C(F)(F)F)c3ccccc23)oc1N1CCC[C@H]1C#N` [compound 23, (S)-1-(4-Methyl-2-(2-(1-(2,2,2-trifluoroacetyl)-1H-indol-3-yl)ethyl)oxazol-5-yl)pyrrolidine-2-carbonitrile], for which the activity at 10 µM worked out at 94% in data set [1] (setting [12]); 94 ± 3% in data set [1] (setting [13]); 87% in [2] (setting [14]); 87 ± 11% in [2] (setting [15]); 84% in data set [3] (read-out: ROS at 10 uM (%)); 84 ± 7% in [3] (read-out: ROS at 10 μM (%)). Moreover, the activity at 10 µM in data set [3] (setting [19]) is below 88%. Further, the “effect on αSyn dimerization (in words)” value in data set [2] (10 μM, N2A cells) is on record as “comparable effect as KYP-2047”. For the same compound, the IC50 in data set [11] (setting [17]) amounted to 120 nM.
Turning to `Cc1nc(CCCc2ccccn2)oc1N1CCCC1C#N` (stereo not drawn) [compound 69], in [5], the “long-term stability (in words)” value is given as “lowered the stability”.
As for `COc1ccc(CCCc2nc(C)c(N3CCC[C@H]3C#N)o2)cc1OC` [compound 19, (S)-1-(2-(3-(3,4-Dimethoxyphenyl)propyl)-4-methyloxazol-5-yl)pyrrolidine-2-carbonitrile], the activity at 10 µM amounted to 93% in data set [1] (setting [12]); 93 ± 2% in [1] (setting [13]); 98% in data set [2] (setting [14]); 98 ± 17% in data set [2] (setting [15]); 70% in [3] (read-out: ROS at 10 uM (%)); 70 ± 9% in data set [3] (read-out: ROS at 10 μM (%)). For the same compound, the activity at 10 µM in data set [3] (setting [19]) is 70%. Further, the IC50 in data set [11] (setting [17]) is 115 nM.

The values above are taken from publication PMC10258805, “Nonpeptidic Oxazole-Based Prolyl Oligopeptidase Ligands with Disease-Modifying Effects on α-Synuclein Mouse Models of Parkinson’s Disease” (Journal of Medicinal Chemistry, 2023).
